Marks after values point to notes of the source that are not given here.
Experiments:
Immune cell subsets = assay: Human HIV clinical protocol: immune phenotypes by flow cytometry; type: in vivo; details: for CD8+CD16+CD38+ cells, median: Baseline 8; for CD8−CD16+ cells, median: Baseline 53; for CD8+CD69+CD25− cells, median: Baseline 18; for Activated T cells (CD8+ CD69+ CD25−), median: about 1 week after last dose
Procedure: Patients infected with HIV are dosed with an i.m. injection of 25-200 mg of BrEA using a formulation containing 100 mg/mL BrEA, PEG300 ˜30% v/v, propylene glycol 30% v/v, benzyl benzoate 30% v/v and benzyl alcohol 2% v/v. The pateints are dosed once per day for 5 consecutive days followed by a period of about 28 days or longer with no BrEA treatment. The patients were them provided with one more course of 5 consecutive days of dosing with BrEA, followed by a non-dosing period of at least about 28 days. Up to 8 rounds of 5-day treatments, followed by at least 28 days of no dosing were provided. Immunological responses were then assayed using blood or plasma samples from the patients by flow cytometry and other known analytical methods. Immune cell subsets or other measured markers were assayed within 24 hours of obtaining the sample from each patient. Labeled antibodies, e.g., anti-CD antigen antibodies conjugated with fluorescent dyes (FITC, phycoerythrin, allophycocyanin or PerCP), were prepared and used essentially according to standard protocols using commercially available reagents, see, e.g., PharMingen, 1998 Research Products Catalog, technical protocols at pages 732-774, human cell surface molecules at pages 182-295 and mouse, rat and hamster cell surface molecules at pages 2-173 and cytokine and chemokine reagents at pages 344-489.
Otherwise untreated patients with CD4 counts of ≧200/μL and HIV-1 viral RNA between 5,000 and 1,000,000 copies/mL (branched-DNA, version 3.0, Bayer, Tarrytown, N.Y.) provided informed consent and were enrolled into a Phase I/II dose-escalation study of the safety and efficacy of intramuscular injections of BrEA. The protocol was conducted in South Africa. In the first cohort, four patients received an initial injection of 1 mL (50 mg), followed by a safety and pharmocokinetic study for seven days, and then received five daily injections of 1 mL (50 mg). The second cohort of 8 patients was randomized in a 1:2 ratio to receive either 50 mg (1 mL) or 100 mg (2 mL) on the same schedule. Patients were allowed at the discretion of the investigators to receive up to three additional courses each, repeated after 28 days of observation. The protocol was amended to introduce an improved formulation, and to extend the initial pharmacokinetic and safety period to 14 days, the observation period following the five daily doses to 35 days, and to allow up to 7 treatment courses. A third cohort of 24 patients was randomized in a 1:2:4 ratio to receive either 50 mg (0.5 mL), 100 mg (1 mL), or 200 mg (2 mL) of BrEA. The patients were all male, since initial safety studies are not permitted in females in South Africa. Within the group of 39 patients randomized, the ethnic demographic included was 18 Caucasian, 17 African, and 4 other. The average age was 34 (range 20-63), the average initial CD4/μL was 434 (range 176-1210), and the average viral load was 13,772 copies/mL (range 3,020-158,489). Patients underwent physical examinations and provided samples for chemistry, hematology, virology and immunology testing approximately every two weeks.
Course 1, 2 and 3 refer to each 5 consecutive day treatment regimen of one daily injection with BrEA (50 or 100 mg BrEA per injection). The formulation contained 100 mg/mL BrEA, PEG300 ˜30% v/v, propylene glycol 30% v/v, benzyl benzoate 30% v/v and benzyl alcohol 2% v/v. The data shown below was obtained from patient blood samples at baseline (on the day dosing was initiated) and at various times after the patients received at least one dose of BrEA. […] The patients in this protocol initially had CD4 counts of at least 200 per mm^3 and a serum HIV RNA load of 5,000 to 1×10^6 RNA copies/mL. […] Average CD4 IL-10 production dropped from a median of 66% to 4% of the cells, while CD4 IFNγ went from a median of 8% to 63%, leading to a Th2 to a Th1 shift in cytokine production. […]

blood cell counts = assay: Enhancement of hemopoiesis in a human HIV patient; type: in vivo
Procedure: A human patient infected with the HIV virus was treated with 16α-bromoepiandrosterone (“BrEA”), using a physiological saline formulation containing 10 mg/mL of BrEA in solution, 36% w/v hydroxypropyl-β-cyclodextrin and 20 mg/mL of micronized BrEA in suspension. The patient received two courses of treatment. The first course consisted of subcutaneous injection once per day of 80 mg of BrEA for 10 days. The second course of treatment commenced 74 days later and used the same formulation, except that deuterium oxide replaced water in the formulation. The second treatment course consisted of subcutaneous injection once per day of 80 mg of BrEA for 15 days. The patient's blood parameters were obtained at the start and at the end of each course of treatment.

Compound: C[C@]12CC[C@H](O)C[C@@H]1CC[C@@H]1[C@@H]2CC[C@]2(C)C(=O)[C@H](Br)C[C@@H]12 [BrEA, 16α-bromo-3β-hydroxy-5α-androstane-17-one]
- Early Activation-Stage CD8+ T cells: Time-averaged AUC Increase Mean ± SEM (Immune cell subsets; CD3+ CD8+ CD69+ CD25−, n=36, p=0.049): 67 ± 33%
- LAK: Time-averaged AUC Increase Mean ± SEM (Immune cell subsets; CD8+ CD16+, n=36, p=0.19): 13 ± 9%
- NK: Time-averaged AUC Increase Mean ± SEM (Immune cell subsets; CD8−CD16+, n=36, p=0.20): 29 ± 22%
- Lin− HLA-DR+ CD11c+/CD123+ cells, median (Immune cell subsets; Course 1, Baseline 3.2, n=10, p<0.001): 17.7 cells/μL
- CD8+CD16+CD38+ cells, median (Immune cell subsets; Course 1, n=10, p<0.001): 27 cells/μL
- CD8−CD16+ cells, median (Immune cell subsets; Course 1, n=12, p<0.001): 253 cells/μL
- CD8+CD69+CD25− cells, median (Immune cell subsets; Course 1, HIV patients, 50 or 100 mg i.m. daily ×5, n=13, p<0.001): 54 cells/μL
- CD8+CD16+CD38+ cells, median (Immune cell subsets; Course 2, n=4, p=0.047): 28 cells/μL
- CD8+CD69+CD25− cells, median (Immune cell subsets; Course 2, n=9, p<0.001): 56 cells/μL
- CD8−CD16+ cells, median (Immune cell subsets; Course 2, n=4, p=0.02): 288 cells/μL
- Lin− HLA-DR+ CD11c+/CD123+ cells, median (Immune cell subsets; Course 2, baseline value from initiation of 2nd course = 6.4, n=5, p=0.02): 11.4^c cells/μL
- CD8+CD16+CD38+ cells, median (Immune cell subsets; Course 3, n=4, p=0.02): 25 cells/μL
- CD8+CD69+CD25− cells, median (Immune cell subsets; Course 3, n=4, p=0.04): 75 cells/μL
- CD8−CD16+ cells, median (Immune cell subsets; Course 3, n=2, p=0.04): 249 cells/μL
- Lin− HLA-DR+ CD11c+/CD123+ cells, median (Immune cell subsets; Course 3, baseline value from initiation of 2nd course = 6.4, n=4, p=0.04): 14.7^c cells/μL
- DC1 (CD11c+) Dendritic Cells: Time-averaged AUC Increase Mean ± SEM (Immune cell subsets; Lineage− HLA-DR+ CD11c+, n=31, p=0.010): 50 ± 18%
- DC2 (CD123+) Dendritic Cells: Time-averaged AUC Increase Mean ± SEM (Immune cell subsets; Lineage− HLA-DR+ CD123+, n=31, p=0.021): 32 ± 13%
- Activated T cells (CD8+ CD69+ CD25−), median (Immune cell subsets; Treatment 1, treated, baseline 19): 54 (n = 13, p < 0.001) cells/μL
- Dendritic cells (Lin− HLA-DR+ CD123+/CD11+), median (Immune cell subsets; Treatment 1, treated, baseline 3.5): 18 (n = 10, p = 0.001) cells/μL
- LAK cells (CD8+ CD16+ CD38+), median (Immune cell subsets; Treatment 1, treated, baseline 8): 27 (n = 10, p < 0.001) cells/μL
- NK (ADCC responders) cells (CD8− CD16+), median (Immune cell subsets; Treatment 1, treated, baseline 54): 253 (n = 12, p < 0.001) cells/μL
- Activated T cells (CD8+ CD69+ CD25−), median (Immune cell subsets; Treatment 2, treated, baseline 19): 56 (n = 9, p < 0.001) cells/μL
- Dendritic cells (Lin− HLA-DR+ CD123+/CD11+), median (Immune cell subsets; Treatment 2, treated, baseline 6.5): 11.5 (n = 5, p = 0.02) cells/μL
- LAK cells (CD8+ CD16+ CD38+), median (Immune cell subsets; Treatment 2, treated, baseline 12): 28 (n = 4, p = 0.04) cells/μL
- NK (ADCC responders) cells (CD8− CD16+), median (Immune cell subsets; Treatment 2, treated, baseline 58): 285 (n = 4, p = 0.02) cells/μL
- Activated T cells (CD8+ CD69+ CD25−), median (Immune cell subsets; Treatment 3, treated, baseline 18): 74 (n = 4, p = 0.04) cells/μL
- Dendritic cells (Lin− HLA-DR+ CD123+/CD11+), median (Immune cell subsets; Treatment 3, treated, baseline 6): 55 (n = 4, p = 0.04) cells/μL
- LAK cells (CD8+ CD16+ CD38+), median (Immune cell subsets; Treatment 3, treated, baseline 12): 25 (n = 4, p = 0.02) cells/μL
- NK (ADCC responders) cells (CD8− CD16+), median (Immune cell subsets; Treatment 3, treated, baseline 56): 250 (n = 2, p = 0.04) cells/μL
- CD4 IL-10 production, median % of the cells (Immune cell subsets; after one course (5 daily i.m. injections), dropped from 66%): 4%
- CD4 IFNγ, median % of the cells (Immune cell subsets; after one course (5 daily i.m. injections), went from 8%): 63%
- DC1 (CD11c+) Dendritic Cells: Maximum Analysis Visit Responses Mean (Immune cell subsets; analysis visit day 22): 58% (22)
- NK: Maximum Analysis Visit Responses Mean (Immune cell subsets; analysis visit day 36): 41% (36)
- LAK: Maximum Analysis Visit Responses Mean (Immune cell subsets; analysis visit day 67): 34% (67)
- DC2 (CD123+) Dendritic Cells: Maximum Analysis Visit Responses Mean (Immune cell subsets; analysis visit day 80): 44% (80)
- Total Dendritic Cells: Maximum Analysis Visit Responses Mean (Immune cell subsets; analysis visit day 139): 38% (139)
- Early Activation-Stage CD8+ T cells: Maximum Analysis Visit Responses Mean (Immune cell subsets; analysis visit day 153): 162% (153)
- DC1 (CD11c+) Dendritic Cells: Maximum Individual Patient Responses Mean (range) (Immune cell subsets; change from baseline, n=31): 130% (−20 to 870%)
- DC2 (CD123+) Dendritic Cells: Maximum Individual Patient Responses Mean (range) (Immune cell subsets; change from baseline, n=31): 100% (−30 to 480%)
- Total Dendritic Cells: Maximum Individual Patient Responses Mean (range) (Immune cell subsets; change from baseline, n=31): 100% (−20 to 600%)
- Early Activation-Stage CD8+ T cells: Maximum Individual Patient Responses Mean (range) (Immune cell subsets; change from baseline, n=36): 210% (0 to 3,090%)
- LAK: Maximum Individual Patient Responses Mean (range) (Immune cell subsets; change from baseline, n=36): 90% (−90 to 630%)
- NK: Maximum Individual Patient Responses Mean (range) (Immune cell subsets; change from baseline, n=36): 140% (−40 to 1,220%)
- Activated CD8+ T cells: Time-averaged AUC Increase Mean ± SEM (Immune cell subsets; i.m. BrEA, HIV patients, CD3+ CD8+ and CD69+ or CD25+, n=36, p=0.005): 15 ± 5%
- Activated CD8+ T cells: Maximum Analysis Visit Responses Mean (Immune cell subsets; i.m. BrEA, HIV patients, analysis visit day 22): 25% (22)
- Activated CD8+ T cells: Maximum Individual Patient Responses Mean (range) (Immune cell subsets; i.m. BrEA, HIV patients, change from baseline, n=36): 70% (−10 to 340%)
- DC1 to DC2 Ratio: Time-averaged AUC Increase Mean ± SEM (Immune cell subsets; n=31, p=0.003): 44 ± 13%
- Total Dendritic Cells: Time-averaged AUC Increase Mean ± SEM (Immune cell subsets; n=31, p=0.010): 38 ± 14%
- WBC (blood cell counts; 1st Course end (80 mg s.c. daily 10 days), start 2.38): 2.47e+09 L⁻¹
- basophils (blood cell counts; 1st Course end, start 0.02): 1e+07 L⁻¹
- monocytes (blood cell counts; 1st Course end, start 0.35): 3e+08 L⁻¹
- neutrophils (blood cell counts; 1st Course end, start 0.92): 8e+08 L⁻¹
- CD4+ T cells (blood cell counts; 1st Course end, start 93): 116 mm^−3
- CD16+/56+ NK cells (blood cell counts; 1st Course end, start 186): 348 mm^−3
- T suppressor cells (blood cell counts; 1st Course end, start 344): 452 mm^−3
- WBC (blood cell counts; 2nd Course end (80 mg s.c. daily 15 days), start 3.57): 5.66e+09 L⁻¹
- basophils (blood cell counts; 2nd Course end, start 0.01): 6e+07 L⁻¹
- monocytes (blood cell counts; 2nd Course end, start 0.34): 5.4e+08 L⁻¹
- neutrophils (blood cell counts; 2nd Course end, start 2.02): 3.6e+09 L⁻¹
- CD4+ T cells (blood cell counts; 2nd Course end, start 113): 125 mm^−3
- CD16+/56+ NK cells (blood cell counts; 2nd Course end, start 144): 425 mm^−3
- T suppressor cells (blood cell counts; 2nd Course end, start 351): 513 mm^−3

From patent US20070275936A1, “Formulations and Treatment Methods” (priority 1998, published 2007)
